From patent US11931431B2, “PSMA-targeted radiopharmaceutical for diagnosing and treating prostate cancer” (FUTURECHEM CO., LTD, priority 2018, dated 2024)

Test system: PSMA^+ PC-3 PIP tumors
Test: MicroPET/CT imaging of mice transplanted with prostate cancer cell lines
Assay type: in vivo, nude mouse
Description: A tumor model was prepared by subcutaneously injecting PSMA^+ PC-3 PIP cells (a human prostate cancer cell line) to the right side of the nude mouse hind leg. Each of the ^68Ga-labeled compounds [^68Ga]1e, [^68Ga]1g, [^68Ga]1h and [^68Ga]1k was intravenously injected with 5.5 to 6.5 MBq (148-175 μCi/200 μL), and PET/CT images were obtained using small animal INVEON PET/CT (Siemens medical solutions, Knoxville, USA) for 60 minutes. After 150 minutes, 270 minutes, and 390 minutes, PET/CT images were also obtained for 30 minutes. The obtained PET/CT image results were quantitatively analyzed using Inveon™ Research Workplace (IRW).
FIGS. 1, 2, 3, and 4 are graphs showing the quantitative analysis results of MicorPET/CT images for [^68Ga]1e, [^68Ga]1g, [^68Ga]1h, and [^68Ga]1k in % injected dose (ID)/g, and summarized in Tables 3, 4, 5, and 6, respectively.

**Q.** Which “intake of mouse organ: Bladder” value (10 min after injection) does the source give for O=C(O)CCC(NC(=O)NC(CCCCN(CC(=O)O)C(=O)COCCNC(=O)C(CCCCNC(=O)CCCc1ccc(I)cc1)NC(=O)CN1CCN2CCN3CCN(CC1)CC(=O)[O][68Ga]([O]C(=O)C2)[O]C(=O)C3)C(=O)O)C(=O)O (stereo not drawn) [[^68Ga]1k] here?
**A.** The value was 4.12 ± 0.45 % ID/g.

**Q.** What about the “intake of mouse organ: Heart” value (10 min after injection) of the same molecule?
**A.** The value was 21.67 ± 0.44 % ID/g.

**Q.** And the “intake of mouse organ: Kidney” value (10 min after injection)?
**A.** The value was 11.16 ± 1.35 % ID/g.

**Q.** What about the “intake of mouse organ: Liver” value (10 min after injection) of the same molecule?
**A.** The value was 11.99 ± 4.72 % ID/g.

**Q.** What about the “intake of mouse organ: Muscle” value (10 min after injection) of the same molecule?
**A.** Its value is 2.26 ± 0.75 % ID/g.

**Q.** And the “intake of mouse organ: Tumor (PIP)” value (10 min after injection)?
**A.** Its value is 1.85 ± 0.25 % ID/g.

**Q.** What about the “intake of mouse organ: Bladder” value (20 min after injection) of the same molecule?
**A.** Its value is 4.68 ± 0.22 % ID/g.

**Q.** What about the “intake of mouse organ: Heart” value (20 min after injection) of the same molecule?
**A.** The value was 20.10 ± 0.29 % ID/g.

**Q.** What about the “intake of mouse organ: Kidney” value (20 min after injection) of the same molecule?
**A.** The value was 11.21 ± 1.62 % ID/g.

**Q.** And the “intake of mouse organ: Liver” value (20 min after injection)?
**A.** Its value is 11.09 ± 3.46 % ID/g.

**Q.** What about the “intake of mouse organ: Muscle” value (20 min after injection) of the same molecule?
**A.** Its value is 2.91 ± 1.21 % ID/g.

**Q.** And the “intake of mouse organ: Tumor (PIP)” value (20 min after injection)?
**A.** Its value is 3.22 ± 0.38 % ID/g.

**Q.** And the “intake of mouse organ: Bladder” value (30 min after injection)?
**A.** Its value is 4.68 ± 0.45 % ID/g.

**Q.** And the “intake of mouse organ: Heart” value (30 min after injection)?
**A.** The value was 18.33 ± 0.13 % ID/g.

**Q.** And the “intake of mouse organ: Kidney” value (30 min after injection)?
**A.** The value was 10.89 ± 1.36 % ID/g.

**Q.** What about the “intake of mouse organ: Liver” value (30 min after injection) of the same molecule?
**A.** Its value is 10.04 ± 2.73 % ID/g.

**Q.** And the “intake of mouse organ: Muscle” value (30 min after injection)?
**A.** The value was 3.09 ± 0.91 % ID/g.

**Q.** And the “intake of mouse organ: Tumor (PIP)” value (30 min after injection)?
**A.** The value was 3.94 ± 0.38 % ID/g.

**Q.** And the “intake of mouse organ: Bladder” value (40 min after injection)?
**A.** Its value is 4.75 ± 0.21 % ID/g.

**Q.** And the “intake of mouse organ: Heart” value (40 min after injection)?
**A.** The value was 17.22 ± 0.35 % ID/g.

**Q.** And the “intake of mouse organ: Kidney” value (40 min after injection)?
**A.** Its value is 11.06 ± 1.02 % ID/g.

**Q.** And the “intake of mouse organ: Liver” value (40 min after injection)?
**A.** Its value is 9.31 ± 2.32 % ID/g.

**Q.** And the “intake of mouse organ: Muscle” value (40 min after injection)?
**A.** Its value is 3.32 ± 1.20 % ID/g.

**Q.** And the “intake of mouse organ: Tumor (PIP)” value (40 min after injection)?
**A.** The value was 4.40 ± 0.36 % ID/g.

**Q.** What about the “intake of mouse organ: Bladder” value (50 min after injection) of the same molecule?
**A.** The value was 4.83 ± 0.18 % ID/g.

**Q.** What about the “intake of mouse organ: Heart” value (50 min after injection) of the same molecule?
**A.** Its value is 16.06 ± 0.38 % ID/g.

**Q.** And the “intake of mouse organ: Kidney” value (50 min after injection)?
**A.** The value was 10.80 ± 1.20 % ID/g.

**Q.** And the “intake of mouse organ: Liver” value (50 min after injection)?
**A.** The value was 8.73 ± 2.11 % ID/g.

**Q.** And the “intake of mouse organ: Muscle” value (50 min after injection)?
**A.** The value was 3.24 ± 1.07 % ID/g.

**Q.** What about the “intake of mouse organ: Tumor (PIP)” value (50 min after injection) of the same molecule?
**A.** The value was 5.03 ± 0.33 % ID/g.

**Q.** And the “intake of mouse organ: Bladder” value (60 min after injection)?
**A.** Its value is 4.81 ± 0.24 % ID/g.

**Q.** And the “intake of mouse organ: Heart” value (60 min after injection)?
**A.** The value was 15.03 ± 0.27 % ID/g.

**Q.** And the “intake of mouse organ: Kidney” value (60 min after injection)?
**A.** The value was 10.96 ± 1.18 % ID/g.

**Q.** What about the “intake of mouse organ: Liver” value (60 min after injection) of the same molecule?
**A.** Its value is 8.22 ± 1.79 % ID/g.

**Q.** What about the “intake of mouse organ: Muscle” value (60 min after injection) of the same molecule?
**A.** Its value is 3.49 ± 1.28 % ID/g.

**Q.** And the “intake of mouse organ: Tumor (PIP)” value (60 min after injection)?
**A.** Its value is 5.45 ± 0.16 % ID/g.

**Q.** And the “intake of mouse organ: Bladder” value (150 min after injection)?
**A.** The value was 18.10 ± 6.51 % ID/g.

**Q.** And the “intake of mouse organ: Heart” value (150 min after injection)?
**A.** Its value is 7.85 ± 1.63 % ID/g.

**Q.** And the “intake of mouse organ: Kidney” value (150 min after injection)?
**A.** Its value is 11.40 ± 1.13 % ID/g.

**Q.** And the “intake of mouse organ: Liver” value (150 min after injection)?
**A.** The value was 5.00 ± 1.41 % ID/g.

**Q.** What about the “intake of mouse organ: Muscle” value (150 min after injection) of the same molecule?
**A.** The value was 2.75 ± 1.20 % ID/g.

**Q.** And the “intake of mouse organ: Tumor (PIP)” value (150 min after injection)?
**A.** Its value is 11.00 ± 2.12 % ID/g.

**Q.** And the “intake of mouse organ: Bladder” value (270 min after injection)?
**A.** Its value is 20.10 ± 4.53 % ID/g.

**Q.** What about the “intake of mouse organ: Heart” value (270 min after injection) of the same molecule?
**A.** The value was 5.10 ± 0.85 % ID/g.

**Q.** And the “intake of mouse organ: Kidney” value (270 min after injection)?
**A.** Its value is 9.25 ± 0.78 % ID/g.

**Q.** What about the “intake of mouse organ: Liver” value (270 min after injection) of the same molecule?
**A.** Its value is 3.60 ± 0.71 % ID/g.

**Q.** What about the “intake of mouse organ: Muscle” value (270 min after injection) of the same molecule?
**A.** The value was 2.15 ± 0.78 % ID/g.

**Q.** And the “intake of mouse organ: Tumor (PIP)” value (270 min after injection)?
**A.** The value was 15.70 ± 4.24 % ID/g.

**Q.** What about the “intake of mouse organ: Bladder” value (390 min after injection) of the same molecule?
**A.** The value was 14.25 ± 0.64 % ID/g.

**Q.** And the “intake of mouse organ: Heart” value (390 min after injection)?
**A.** The value was 3.80 ± 1.41 % ID/g.

**Q.** What about the “intake of mouse organ: Kidney” value (390 min after injection) of the same molecule?
**A.** The value was 7.70 ± 0.71 % ID/g.

**Q.** And the “intake of mouse organ: Liver” value (390 min after injection)?
**A.** The value was 2.25 ± 0.64 % ID/g.

**Q.** And the “intake of mouse organ: Muscle” value (390 min after injection)?
**A.** The value was 1.20 ± 0.56 % ID/g.

**Q.** What about the “intake of mouse organ: Tumor (PIP)” value (390 min after injection) of the same molecule?
**A.** The value was 18.25±4.17 % ID/g.

**Q.** What about the “excretion, in words” value (MicroPET/CT) of the same molecule?
**A.** The value was “rapidly excreted out of the body”.

**Q.** What about the “residence time in the blood, in words” value (MicroPET/CT) of the same molecule?
**A.** The value was “residence time in the blood was increased”.

**Q.** What about the “tumor intake over time, in words” value (MicroPET/CT) of the same molecule?
**A.** The value was “tumor intake continued to increase after 390 minutes”.
